# Source: PubChem BioAssay (NCI)
#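 Exposure lasted 48 hours, with cells grown in 96-well plates and compounds tested at five concentrations. GI50 marks 50% less growth. TGI marks complete inhibition of growth.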
# How the values were obtained:
# Assay in all cases: inhibition of tumour cell growth, NCI panel, 48 h
# [1] = test system: NCI-H23 lung
# [2] = test system: UO-31 renal
# [3] = test system: PC-3 prostate
# [4] = test system: SK-OV-3 ovarian
# [5] = test system: DU-145 prostate
# [6] = test system: U251 CNS
# [7] = test system: CAKI-1 renal
# [8] = test system: HCT-15 colon
# [9] = test system: UACC-62 melanoma
# [10] = test system: NCI/ADR-RES ovarian
# [11] = test system: HOP-62 NSCLC
# [12] = test system: NCI-H522 lung
# [13] = test system: SNB-75 CNS
# [14] = test system: K-562 leukemia
# [15] = test system: EKVX NSCLC
# [16] = test system: SR leukemia
# [17] = test system: CCRF-CEM leukemia
# [18] = test system: BT-549 breast
# [19] = test system: SK-MEL-5 melanoma
# [20] = test system: SK-MEL-2 melanoma
# [21] = test system: 786-0 renal
# [22] = test system: IGROV1 ovarian
# [23] = test system: COLO 205 colon
# [24] = test system: RXF 393 renal
# [25] = test system: OVCAR-4 ovarian
# [26] = test system: HCT-116 colon
# [27] = test system: HT29 colon
# [28] = test system: OVCAR-3 ovarian
# [29] = test system: SF-268 CNS
# [30] = test system: SN12C renal
# [31] = test system: KM12 colon
# [32] = test system: MDA-MB-435
# [33] = test system: HS 578T breast
# [34] = test system: UACC-257 melanoma
# [35] = test system: LOX IMVI melanoma
# [36] = test system: MDA-MB-231 breast
# [37] = test system: ACHN renal
# [38] = test system: OVCAR-8 ovarian
# [39] = test system: OVCAR-5 ovarian
# [40] = test system: SNB-19 CNS
# [41] = test system: A549 NSCLC
# [42] = test system: SW-620 colon
# [43] = test system: A498 renal
# [44] = test system: SF-295 CNS
# [45] = test system: M14 melanoma
# [46] = test system: MALME-3M melanoma
# [47] = test system: SF-539 CNS
# [48] = test system: HOP-92 NSCLC
# [49] = test system: TK-10 renal
# [50] = test system: SK-MEL-28 melanoma
# [51] = test system: T-47D breast
# [52] = test system: HL-60(TB) leukemia
# [53] = test system: HCC-2998 colon
# [54] = test system: NCI-H460 lung
# [55] = test system: MOLT-4 leukemia
# [56] = test system: RPMI-8226 leukemia
# [57] = test system: MCF7 breast
smiles,measurement,setting,value
CCCCC/C=C/C(=O)CCc1ccc(O)c(OC)c1,GI50,[1],4.62 µM
same,TGI,[1],17.9 µM
same,GI50,[2],1.28 µM
same,TGI,[2],13.6 µM
same,GI50,[3],3.75 µM
same,TGI,[3],18 µM
same,GI50,[4],13.8 µM
same,TGI,[4],27.4 µM
same,GI50,[5],4.03 µM
same,TGI,[5],15.4 µM
same,GI50,[6],4.65 µM
same,TGI,[6],17.1 µM
same,GI50,[7],9.38 µM
same,TGI,[7],27.5 µM
same,GI50,[8],10.8 µM
same,TGI,[8],27.2 µM
same,GI50,[9],13.9 µM
same,TGI,[9],27.7 µM
same,GI50,[10],7.49 µM
same,TGI,[10],37 µM
same,GI50,[11],9.77 µM
same,TGI,[11],22.1 µM
same,GI50,[12],2 µM
same,TGI,[12],13.6 µM
same,GI50,[13],5.63 µM
same,TGI,[13],20.5 µM
same,GI50,[14],3.77 µM
same,TGI,[14],> 100 µM
same,GI50,[15],15.1 µM
same,TGI,[15],31.9 µM
same,GI50,[16],2.89 µM
same,TGI,[16],> 100 µM
same,GI50,[17],0.198 µM
same,TGI,[17],3.01 µM
same,GI50,[18],13.2 µM
same,TGI,[18],26.7 µM
same,GI50,[19],12.4 µM
same,TGI,[19],25.1 µM
same,GI50,[20],14.8 µM
same,TGI,[20],28.8 µM
same,GI50,[21],10.6 µM
same,TGI,[21],23.6 µM
same,GI50,[22],1.74 µM
same,TGI,[22],6.91 µM
same,GI50,[23],11.2 µM
same,TGI,[23],24.1 µM
same,GI50,[24],5.4 µM
same,TGI,[24],18.6 µM
same,GI50,[25],11 µM
same,TGI,[25],23.1 µM
same,GI50,[26],1.71 µM
same,TGI,[26],3.26 µM
same,GI50,[27],2.13 µM
same,TGI,[27],4.94 µM
same,GI50,[28],3.23 µM
same,TGI,[28],12.9 µM
same,GI50,[29],10.9 µM
same,TGI,[29],25.5 µM
same,GI50,[30],7.99 µM
same,TGI,[30],21.4 µM
same,GI50,[31],3.09 µM
same,TGI,[31],11.7 µM
same,GI50,[32],4.04 µM
same,TGI,[32],19 µM
same,GI50,[33],3.49 µM
same,TGI,[33],32.8 µM
same,GI50,[34],9.67 µM
same,TGI,[34],22.3 µM
same,GI50,[35],1.6 µM
same,TGI,[35],3.29 µM
same,GI50,[36],12.6 µM
same,TGI,[36],32.8 µM
same,GI50,[37],11.8 µM
same,TGI,[37],24.1 µM
same,GI50,[38],4.03 µM
same,TGI,[38],16.7 µM
same,GI50,[39],16.2 µM
same,TGI,[39],32.1 µM
same,GI50,[40],14 µM
same,TGI,[40],27.1 µM
same,GI50,[41],6.25 µM
same,TGI,[41],20.8 µM
same,GI50,[42],2.86 µM
same,TGI,[42],10.3 µM
same,GI50,[43],13.1 µM
same,TGI,[43],26.8 µM
same,GI50,[44],10.4 µM
same,TGI,[44],31 µM
same,GI50,[45],5.5 µM
same,TGI,[45],19.4 µM
same,GI50,[46],16.6 µM
same,TGI,[46],35.3 µM
same,GI50,[47],5.4 µM
same,TGI,[47],20.6 µM
same,GI50,[48],3.42 µM
same,TGI,[48],18.5 µM
same,GI50,[49],11.6 µM
same,TGI,[49],24.7 µM
same,GI50,[50],15 µM
same,TGI,[50],28.7 µM
same,GI50,[51],4.78 µM
same,TGI,[51],18.9 µM
same,GI50,[52],0.784 µM
same,TGI,[52],43.9 µM
same,GI50,[53],16.7 µM
same,TGI,[53],30.7 µM
same,GI50,[54],15.2 µM
same,TGI,[54],33.6 µM
same,GI50,[55],10.1 µM
same,TGI,[55],> 100 µM
same,GI50,[56],1.69 µM
same,TGI,[56],4.34 µM
same,GI50,[57],3.11 µM
same,TGI,[57],15.8 µM
